# What was measured:
# Assay type in all cases: cell-based
# [1] = tested on: lung cancer cells; assay: Colony formation by lung cancer cells (FIG. 10)
# [2] = tested on: breast cancer cells; assay: Cell proliferation of breast cancer cells (FIG. 12)
# [3] = tested on: brain CSCs; assay: Colony formation by brain CSCs (FIG. 8)
# [4] = tested on: human normal lung epithelial cells (Beas 2B); assay: Cell proliferation of normal lung epithelial cells (FIG. 9)
# [5] = tested on: prostate cancer cells; assay: Cell proliferation of prostate cancer cells (FIG. 13)
# [6] = tested on: glioblastoma cells; assay: Colony formation by glioblastoma cells (FIG. 8)
# [7] = tested on: lung cancer cells (A549); assay: Cell proliferation of lung cancer cells (FIG. 9)
# [8] = tested on: colorectal CSCs; assay: Cell proliferation of colorectal CSCs (FIG. 11)
# [9] = tested on: glioblastoma cell lines; assay: Cell proliferation of glioblastoma cell lines (FIG. 7)
# [10] = tested on: brain CSCs; assay: Cell proliferation of brain CSCs (FIG. 7)
compound,measurement,setting,value
Nc1nc(CC(=O)Nc2ccc(CCNC[C@H](O)c3ccccc3)cc2)cs1 [Mirabegron],colony formation,[1],inhibits colony formation
same,cell proliferation,[2],inhibits cell proliferation
same,colony formation,[3],inhibits colony formation
same,cell proliferation,[4],has no effect
same,cell proliferation,[5],inhibits cell proliferation
same,colony formation,[6],inhibits colony formation
same,cell proliferation,[7],inhibits cell proliferation
same,cell proliferation,[8],inhibits cell proliferation
same,cell proliferation,[9],inhibits cell proliferation
same,cell proliferation,[10],inhibits cell proliferation

# Source: patent US20190336486A1, “METHODS FOR TREATING CANCER AND METABOLIC SYNDROME” (GLAX LLC, priority 2018, published 2019)
